Assay results taken from patent US20240116985A1, “STAPLED PEPTIDES AND METHODS THEREOF” (priority 2020, published 2024).
Converted amounts (≈) assume the structure as drawn. “And” between values parts separate entries of the source, which are not always exact repeats. Identical values can stand only once. Like-named read-outs stand apart in the source and are kept apart here.

Experiments:
CHI Log D procedure = format: physicochemical; conditions: for CHI Log D: pH 7.4; for chromatographic logD: pH 7.4, CHI Log D
[1] = target: T1, full-length B-Catenin (Uniprot ID P35222) (Homo sapiens, UniProt P35222); assay: Alphascreen binding assay (beta-catenin / biotin-TCF4 10-53)
T1 construct: 65 nM full-length B-Catenin (Uniprot ID P35222)
T1 sequence (P35222 1-781): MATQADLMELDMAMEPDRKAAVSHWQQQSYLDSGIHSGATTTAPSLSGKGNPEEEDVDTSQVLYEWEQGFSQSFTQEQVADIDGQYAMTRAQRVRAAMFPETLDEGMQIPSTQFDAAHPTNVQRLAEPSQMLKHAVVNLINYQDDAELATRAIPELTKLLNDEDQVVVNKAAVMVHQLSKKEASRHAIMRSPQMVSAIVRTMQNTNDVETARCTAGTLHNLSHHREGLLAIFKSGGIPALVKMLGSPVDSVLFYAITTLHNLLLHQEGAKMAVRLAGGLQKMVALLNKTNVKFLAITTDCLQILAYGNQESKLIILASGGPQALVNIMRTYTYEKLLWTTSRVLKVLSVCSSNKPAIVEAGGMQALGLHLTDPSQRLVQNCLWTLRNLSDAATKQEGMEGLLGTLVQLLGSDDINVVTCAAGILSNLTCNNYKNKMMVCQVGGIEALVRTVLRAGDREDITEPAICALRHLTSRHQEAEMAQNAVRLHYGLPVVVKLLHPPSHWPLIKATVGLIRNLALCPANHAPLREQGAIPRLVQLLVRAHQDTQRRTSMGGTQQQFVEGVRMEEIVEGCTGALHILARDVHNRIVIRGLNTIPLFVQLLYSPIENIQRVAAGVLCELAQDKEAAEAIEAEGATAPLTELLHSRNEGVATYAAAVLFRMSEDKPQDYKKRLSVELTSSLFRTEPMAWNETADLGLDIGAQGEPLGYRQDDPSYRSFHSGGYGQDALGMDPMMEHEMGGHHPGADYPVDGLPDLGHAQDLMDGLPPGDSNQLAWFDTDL
Procedure: In some embodiments, an assay is an Alphascreen binding assay. A useful protocol is described below as an example.
Alphascreen binding assay: Using the AlphaScreen Histidine (Nickel Chelate) Detection Kit (PerkinElmer), peptide solutions were prepared in buffer (50 mM Tris pH 8.0, 250 mM NaCl, 2% glycerol, 0.03% Tween-20, 0.01% TritonX-100, 0.1% BSA w/v) using a 3-fold serial dilution from 10 uM to 5 nM. Probe solution (65 nM full-length B-Catenin (Uniprot ID P35222), mixed with 10 nM biotin labeled TCF4 residues 10-53 (Uniprot ID Q9NQB0) peptide in buffer) was prepared and 4 uL per well was plated in a white polystyrene 384-well plate (Corning). Equal volume of the titrated peptide was added to the plate and incubated for 15 minutes at 20° C. Then 4 uL of donor and 4 uL acceptor beads at 10 ug/mL were added to the plate, for a 16 uL reaction pool and protected from light for 60 minutes at 20° C. prior to read. Reads were performed on a CLARIOstar plate reader (BMG Labtech) in duplicate, and data were fitted to a 1:1 binding model with hill slope using an in-house script. All provided concentrations are final concentrations.

[2] = system: TCF/LEF luciferase Reporter in DLD1 cells; assay: TCF reporter assay (DLD1 TCF/LEF luciferase reporter, Bright-Glo); format: cell-based; conditions: for DLD1 TCF c2 BrightGlo % Inhibition: replicates
Outline: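 Readouts: Bright-Glo luciferase for reporter signal and CellTiter-Glo for cell viability, with absolute IC50 derived. The reporter clone came from lentiviral TCF/LEF-luciferase transduction of DLD1 cells, seeded 5000 cells/well in RPMI with 4% FBS and exposed overnight to serially diluted compounds.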

[3] = target: T2, beta-catenin/TCF4 engagement (Homo sapiens, UniProt P35222); assay: Nano-BRET target engagement assay (B-cat-Halo & TCF4-Luc in HEK293 cells); format: cell-based; conditions: read-out: NanoBRET Abs IC50
T2 construct: expressed in transfected cells; host or cells: HEK293
T2 sequence (P35222 1-781): T1 sequence (P35222 1-781)

Solubility in PBS = format: physicochemical
Outline: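 Read-out is the HPLC peak area of the supernatant from ultracentrifuged PBS solution, scaled against a 50 μM peptide DMSO injection; value reported as [(PBS area)/(DMSO area)]*50 uM.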

[4] = target: T3, full-length beta-Catenin (Uniprot ID P35222) (Homo sapiens, UniProt P35222); assay: Fluorescence polarization IC50 (beta-catenin / 5FAM-TCF4 10-53 competition); format: binding
T3 construct: 10 nM full-length beta-Catenin (Uniprot ID P35222)
T3 sequence (P35222 1-781): T1 sequence (P35222 1-781)

[5] = absolute IC50, read-out: DLD1 reporter assay Abs IC50
[6] = first dose = 20 uM (plate map), 20 µM
[7] = third dose = 5 uM (plate map), 5 µM

SMILES	CHI Log D (CHI Log D procedure)	EC50 [1]	chromatographic logD (CHI Log D procedure)	IC50 [2, 5]	IC50 ([3]; absolute IC50)	Solubility (Solubility in PBS; Solubility (uM))	IC50 ([4]; read-out: beta-Catenin FP IC50)	further results
CC(=O)N[C@@H](Cc1ccccc1)C(=O)N[C@@H](CC(=O)O)C(=O)N[C@@H](C)C(=O)N[C@]1(C)CCCCCCC=CCOC(=O)N2CC[C@@](C(=O)N[C@@H](CC3CCCC3)C(=O)N[C@@H](Cc3c[nH]c4ccccc34)C(=O)N[C@@H](CCC(N)=O)C(N)=O)(C2)NC(=O)[C@H](C(C)C)NC(=O)[C@H](Cc2ccccc2)NC(=O)[C@H](C)NC(=O)[C@H](C)NC(=O)[C@H](CC(=O)O)NC(=O)[C@H](CC(=O)O)NC1=O (single isomer, unassigned) [I-94, Ac-Phe-Asp-Ala-R8-Asp-Asp-Ala-Ala-Phe-Val-PyrS-CypA-Trp-Gln-NH2]	1.409	7.01 µM						
CC(=O)N[C@@H](Cc1ccccc1)C(=O)N[C@@H](CC(=O)O)C(=O)N[C@@H](C)C(=O)N[C@]1(C)CCCCCCC=CCOC(=O)N2CC[C@@](C(=O)N[C@@H](Cc3ccccc3)C(=O)N[C@@H](Cc3c[nH]c4ccccc34)C(=O)N[C@@H](CCC(N)=O)C(N)=O)(C2)NC(=O)[C@H](C(C)C)NC(=O)[C@H](Cc2ccccc2)NC(=O)[C@H](C)NC(=O)[C@H](C)NC(=O)[C@H](CCCC(=O)O)NC(=O)[C@H](CC(=O)O)NC1=O [I-6, Ac-Phe-Asp-Ala-R8-Asp-Aad-Ala-Ala-Phe-Val-PyrS-Phe-Trp-Gln-NH2]	1.378	6.5 µM						
CC(=O)N[C@@H](Cc1ccccc1)C(=O)N[C@@H](CC(=O)O)C(=O)N[C@@H](C)C(=O)N[C@]1(C)CCCC=CCOC(=O)N(C)CCC[C@@](C)(C(=O)N[C@@H](Cc2ccccc2)C(=O)N[C@@H](Cc2c[nH]c3ccccc23)C(=O)N[C@@H](CCC(N)=O)C(N)=O)NC(=O)[C@H](C(C)C)NC(=O)[C@H](Cc2ccccc2)NC(=O)[C@H](C)NC(=O)[C@H](C)NC(=O)[C@H](CC(=O)O)NC(=O)[C@H](CC(=O)O)NC1=O [I-25, Ac-Phe-Asp-Ala-R5-Asp-Asp-Ala-Ala-Phe-Val-SeN-Phe-Trp-Gln-NH2]		7.22 µM	1.17					
COc1ccc(C[C@@H]2NC(=O)[C@H](C)NC(=O)[C@H](C)NC(=O)[C@H](CCC(=O)O)NC(=O)[C@H](CC(=O)O)NC(=O)C3(CCCC=CCCCCCC[C@@](C)(C(=O)N[C@@H](Cc4ccccc4)C(=O)N[C@@H](Cc4c[nH]c5ccccc45)C(=O)N[C@@H](CCC(N)=O)C(N)=O)NC(=O)[C@H](C(C)C)NC2=O)CCCC=CC[C@]2(CCCN2C(C)=O)C(=O)N[C@@H](CC(=O)O)C(=O)N[C@@H](C)C(=O)N3)cc1 (stereo partly drawn) [I-218, Ac-PL3-Asp-Ala-B5-Asp-Glu-Ala-Ala-MeTyr-Val-S8-Phe-Trp-Gln-NH2]		0.09 µM						
CC(=O)N1CCC[C@]12CC=CCCCC1(CCCC=CCCCOC(=O)N3CC[C@@](C(=O)N[C@@H](Cc4ccccc4Cl)C(=O)N[C@@H](Cc4csc5ccccc45)C(=O)N[C@@H](C)CO)(C3)NC(=O)[C@H](CC(N)=O)NC(=O)[C@H](Cc3ccccc3)NC(=O)[C@H](C)NC(=O)[C@H](C)NC(=O)[C@H](CC(=O)O)NC(=O)[C@H](CC(=O)O)NC1=O)NC(=O)[C@H](CC(C)(C)C)NC(=O)[C@H](CC(=O)O)NC2=O (stereo partly drawn) [I-1081, Ac-PL3-Asp-Npg-B5-Asp-Asp-Ala-Ala-Phe-Asn-PyrS2-2C1F-BztA-Alao1]			2.4	10 µM	16.7 µM	43 µM (≈ 80.7 µg/mL)	0.005 µM	DLD1 TCF c2 BrightGlo % Inhibition [2, 6]: 67.2% and 69.3% and 72.3%; IC50 ([2]; read-out: DLD1 4% Abs IC50, DLD1 4%): 10.6 µM; DLD1 TCF c2 BrightGlo % Inhibition ([2]; 0.625 µM): 9.2% and 7.1% and 11.5%; DLD1 TCF c2 BrightGlo % Inhibition ([2]; 1.25 µM): 0.8% and 2.4% and 5.4%; DLD1 TCF c2 BrightGlo % Inhibition ([2]; 2.5 µM): 4.5% and 7.9% and 15.2%; DLD1 TCF c2 BrightGlo % Inhibition ([2]; 10 µM): 45.6% and 49.8% and 55.3%; DLD1 TCF c2 BrightGlo % Inhibition [2, 7]: 17.5% and 23.8% and 31.0%
CC(=O)N1CCC[C@]12CC=CCCCC1(CCCC=CCCCOC(=O)N3CC[C@@](C(=O)N[C@@H](Cc4ccccc4Cl)C(=O)N[C@@H](Cc4csc5ccccc45)C(=O)N[C@H](CO)[C@@H](C)O)(C3)NC(=O)[C@H](CC(N)=O)NC(=O)[C@H](Cc3ccccc3)NC(=O)[C@H](C)NC(=O)[C@H](C)NC(=O)[C@H](CC(=O)O)NC(=O)[C@H](CC(=O)O)NC1=O)NC(=O)[C@H](CC(C)(C)C)NC(=O)[C@H](CC(=O)O)NC2=O (stereo partly drawn) [I-1082, Ac-PL3-Asp-Npg-B5-Asp-Asp-Ala-Ala-Phe-Asn-PyrS2-2C1F-BztA-Thro1]			2.33	4.8 µM	14.1 µM	48 µM (≈ 91.5 µg/mL)	0.005 µM	DLD1 TCF c2 BrightGlo % Inhibition [2, 6]: 76.5% and 77.1% and 79.9%; DLD1 TCF c2 BrightGlo % Inhibition ([2]; 0.625 µM): 14.1% and 17.4% and 20.3%; DLD1 TCF c2 BrightGlo % Inhibition ([2]; 1.25 µM): 14.0% and 21.5% and 24.0%; DLD1 TCF c2 BrightGlo % Inhibition ([2]; 2.5 µM): 17.3% and 36.1% and 37.9%; DLD1 TCF c2 BrightGlo % Inhibition ([2]; 10 µM): 63.9% and 71.0% and 75.0%; DLD1 TCF c2 BrightGlo % Inhibition [2, 7]: 38.5% and 56.2% and 62.0%
CC(=O)N1CCC[C@]12CC=CCCCC1(CCCC=CCCCCCC[C@@](C)(C(=O)N[C@@H](Cc3ccccc3Cl)C(=O)N[C@@H](Cc3csc4ccccc34)C(=O)N[C@@H](CCC(N)=O)C(N)=O)NC(=O)[C@H]([C@@H](C)O)NC(=O)[C@H](Cc3ccccc3)NC(=O)[C@H](C)NC(=O)[C@H](C)NC(=O)[C@H](CC(=O)O)NC(=O)[C@H](CC(=O)O)NC1=O)NC(=O)[C@H](CC(C)(C)C)NC(=O)[C@H](CC(=O)O)NC2=O (stereo partly drawn) [I-1087, Ac-PL3-Asp-Npg-B5-Asp-Asp-Ala-Ala-Phe-Thr-S8-2C1F-BztA-Gln-NH2]	2.766			> 20 µM	9.3 µM		0.009 µM	IC50 [3]: 9.3 µM; Solubility (Solubility in PBS): 44 µM (≈ 83.2 µg/mL); IC50 ([4]; fluorescence polarization, beta-catenin, read-out: FP EC50): 0.009 µM
CC(=O)N1CCC[C@]12CC=CCCCC1(CCCC=CCCCCCC[C@@](C)(C(=O)N[C@@H](Cc3ccccc3Cl)C(=O)N[C@@H](Cc3csc4ccccc34)C(=O)N[C@@H](C(N)=O)[C@H](C)O)NC(=O)[C@H](CC(C)C)NC(=O)[C@H](Cc3ccccc3)NC(=O)[C@H](C)NC(=O)[C@H](C)NC(=O)[C@H](CC(=O)O)NC(=O)[C@H](CC(=O)O)NC1=O)NC(=O)[C@H](CC(C)(C)C)NC(=O)[C@H](CC(=O)O)NC2=O (stereo partly drawn) [I-1097, Ac-PL3-Asp-Npg-B5-Asp-Asp-Ala-Ala-Phe-Leu-S8-2C1F-BztA-dThr-NH2]			3.61	> 20 µM	> 20 µM	20 µM (≈ 37.5 µg/mL)	0.04 µM	
